The record followed here is patent US6586613B1, “Substituted tetrahydronaphthaline and analogous compounds” (Bayer Aktiengellschaft, priority 1997, dated 2003).

The test system of one experiment is transgenic hCETP mice. Put plainly: In vivo activity in transgenic hCETP mice (lipoproteins and triglycerides in serum). The conditions noted are these: 30 ppm via the feed, after one week. The method, then:
In vivo Activity in Transgenic hCETP Mice
The substances to be tested were administered to transgenic mice, which were bred in our own laboratory (Dinchuck, Hart, Gonzalez, Karmann, Schmidt, Wirak; BBA (1995), 1295, 301), via the feed. Prior to the beginning of the experiment, blood samples were taken retro-orbitally from the mice to determine cholesterol and triglycerides in the serum. The serum was obtained as described above for hamsters by incubation at 4° C. overnight and subsequent centrifugation at 6000×g. After one week, blood samples were again taken from the mice to determine lipoproteins and triglycerides. The change of the measured parameters are expressed as a change in percent based on the initial value.

In experiment [1] the target is T1, cholesterol ester transfer protein (CETP) (Homo sapiens, UniProt P11597).
T1 construct: CETP is obtained in partially purified form from human plasma by differential centrifugation and column chromatography; from tissue; host or cells: human plasma
T1 sequence (P11597 18-493): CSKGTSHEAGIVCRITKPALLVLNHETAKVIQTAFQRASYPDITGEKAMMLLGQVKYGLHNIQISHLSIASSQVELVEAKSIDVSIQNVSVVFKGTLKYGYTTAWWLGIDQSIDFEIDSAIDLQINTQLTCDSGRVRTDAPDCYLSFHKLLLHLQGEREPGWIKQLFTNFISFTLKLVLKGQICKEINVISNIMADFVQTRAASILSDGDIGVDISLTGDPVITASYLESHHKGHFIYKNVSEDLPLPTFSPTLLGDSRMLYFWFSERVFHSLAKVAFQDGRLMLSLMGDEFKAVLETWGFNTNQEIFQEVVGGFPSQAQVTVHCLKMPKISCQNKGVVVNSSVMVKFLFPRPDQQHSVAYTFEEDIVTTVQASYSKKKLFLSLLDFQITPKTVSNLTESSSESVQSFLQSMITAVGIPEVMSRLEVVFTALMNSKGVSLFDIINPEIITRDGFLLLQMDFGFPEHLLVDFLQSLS
Briefly: CETP inhibition test (transfer of 3H-cholesterol ester from HDL to biotinylated LDL, SPA). The experiment is classed as biochemical. The note with it: CETP partially purified from human plasma; 37° C., 18 h. The method, then: CETP is obtained in partially purified form from human plasma by differential centrifugation and column chromatography and used for the test. For this purpose, human plasma is adjusted to a density of 1.21 g per ml using NaBr and centrifuged at 50,000 rpm at 4° C. for 18 h. The bottom fraction (d>1.21 g/ml) is applied to a Sephadex®Phenyl-Sepharose 4B (Pharmacia) column, washed with […]/0.001 M TrisHCl pH 7.4 and subsequently eluted using dist. water. The CETP-active fractions are pooled, dialysed against 50 mM Na-acetate pH 4.5 and applied to a CM-Sepharose® (Pharmacia) column. Elution is subsequently carried out using a linear gradient (0-1 M NaCl). The pooled CETP fractions are dialysed against 10 mM TrisHCl pH 7.4 and subsequently purified further by chromatography over a Mono Q® column (Pharmacia).
Preparation of Radioactively Labelled HDL
50 ml of fresh human EDTA plasma is adjusted to a density of 1.12 using NaBr and centrifuged at 4° C. in a Ty 65 rotor at 50,000 rpm for 18 h. The upper phase is used to obtain cold LDL. […]
To assess the CETP activity, the transfer of ^3H-cholesterol ester from human HD-lipoproteins to biotinylated LD-lipoproteins is measured.
The reaction is terminated by addition of Streptavidin-SPA® beads (Amersham) and the transferred radioactivity is directly measured in a liquid scintillation counter. […]

The test system of the next experiment is CETP activity. Briefly: Ex vivo activity: CETP activity in serum of treated hamsters. The note with it: Syrian gold hamsters; for ED50 for ex vivo activity: CETP activity in serum; for % inhibition at 3 mg/kg: ex vivo CETP activity in serum. As to the method:
Ex vivo Activity of the Compounds According to the Invention
Syrian gold hamsters, which have been bred in our own laboratory, are anaesthetized after 24 hours of fasting (0.8 mg/kg of atropine, 0.8 mg/kg of Ketavet® s.c., 30′ later 50 mg/kg of nembutal i.p.). The jugular vein is subsequently exposed and cannulated. The test substance is dissolved in a suitable solvent (usually adalate placebo solution: 60 g of glycerol, 100 ml of H2O, ad 1000 ml PEG-400) and administered to the animals via a PE catheter, which is introduced into the jugular vein. The same volume of solvent without test substance is administered to the control animals. The vein is subsequently tied off and the wound is closed.
The test substances can also be administered p.o. by dissolving the substances in DMSO and suspending them in 0.5% tylose and administering them using a pharyngeal tube. Identical volumes of solvent without test substance are administered to the control animals.
At different intervals—up to 24 hours after the administration—blood samples are taken from the animals by puncture of the retro-orbital venous plexus (approximately 250 μl). Coagulation is completed by incubation at 4° C. overnight, and the samples are subsequently centrifuged at 6000×g for 10 minutes. The CETP activity is determined in the resulting serum using the modified CETP test. The transfer of ^3H-cholesterol ester from HD-lipoproteins to biotinylated LD-lipoproteins is measured as described above for the CETP test.
The reaction is terminated by addition of Streptavidin-SPA® beads (Amersham), and the transferred radioactivity is directly determined in a liquid scintillation counter.
The test protocol is carried out as described under “CETP test”. However, to test the sera, 10 μl of CETP are replaced by 10 μl of the appropriate serum samples. Corresponding incubations of sera of untreated animals serve as controls.
The activity that is transferred in the control experiments using control sera is classified as 100% transfer. The substance concentration at which this transfer is reduced by half is stated as the ED50 value.

The subject of the next experiment is Syrian gold hamsters. Briefly: In vivo activity: HDL increase after oral administration to hamsters. The conditions noted are these: perorally. As to the method: In vivo Activity of the Compounds According to the Invention
In experiments for assessing the oral activity on lipoproteins and triglycerides, test substance, dissolved in DMSO and suspended in 0.5% tylose, is administered perorally by means of a pharyngeal tube to Syrian gold hamsters which have been bred in our own laboratory. To determine the CETP activity, blood samples (approximately 250 μl) are taken by retro-orbital puncture prior to the start of the experiment. The test substances are subsequently administered perorally using a pharyngeal tube. Identical volumes of solvent without test substance are administered to the control animals. […]
Coagulation is completed by incubation at 4° C. overnight, and the samples are subsequently centrifuged at 6000×g for 10 minutes. The content of cholesterol and triglycerides in the resulting serum is assessed using modified commercially available enzyme tests (cholesterol enzymatic 14366 Merck, triglycerides 14364 Merck). […]
100 μl of serum dilution and 100 μl of test substance are transferred into 96-well-plates and incubated at room temperature for 10 minutes. The optical density is subsequently determined at a wavelength of 492 nm using an automatic plate reader.
The triglyceride and cholesterol concentrations of the samples are determined with the aid of a standard curve measured in parallel. […]

As to `CC(C)c1cc2c(c(-c3ccc(F)cc3)c1[C@@H](F)c1ccc(C(F)(F)F)cc1)[C@@H](O)CC1(CCC1)C2` [Example 15, (S)-8-Hydroxy-1-(4-fluorophenyl)-2-[(S)-fluoro-(4-trifluoromethyl-phenyl)-methyl]-3-isopropyl-6-spiro-cyclobutyl-5,6,7,8-tetrahydronaphthalene], in the experiment with transgenic hCETP mice, the “HDL, change in percent based on the initial value” was “+60%”; the “LDL, change in percent based on the initial value” is −18%; the “Triglycerides, change in percent based on the initial value” is listed as −15%.
A word on the IC50: it is the midpoint of a concentration-inhibition curve. A low value points to greater potency in that assay. The term % inhibition denotes the relative decrease from the control value, in per cent. Read a high % inhibition as strong suppression. As to `CC(C)c1cc2c(c(-c3ccc(F)cc3)c1[C@@H](F)c1ccc(C(F)(F)F)cc1)[C@@H](O)CC(C)(C)C2` [Example 25], the IC50 in experiment [1] amounted to 3 nM. Further, in the experiment with CETP activity, the “ED50 for ex vivo activity” value is under 0.3 mg/kg and the “% inhibition at 3 mg/kg” value is reported as 83.1%. Also, the “% HDL increase” value with Syrian gold hamsters (dose 2 × 1 mg/kg) is given as “+15%”.
Regarding `O[C@H]1CC2(CCC2)Cc2cc(C3CCCC3)c([C@@H](F)c3ccc(C(F)(F)F)cc3)c(-c3ccc(F)cc3)c21` [Example 31], inhibition in experiment [1] was half-maximal at 2.7 nM (IC50). Moreover, in the experiment with CETP activity, the “ED50 for ex vivo activity” value is listed as under 0.3 mg/kg and the “% inhibition at 3 mg/kg” value is 72.3%. Moreover, the “% HDL increase” value in the experiment with Syrian gold hamsters (dose 2 × 0.3 mg/kg) is reported as “+19%”.
